In patent US4783462A, “3(2H)pyridazinone, and anti-allergic agent containing it” (Nissan Chemical Industries Ltd., priority 1985, dated 1988):

What was measured:
ddY strain male mice = test: Acute toxicity test, Test method-(2), intraperitoneal; type: in vivo; details: 7 days
Procedure: The lethal ratio was determined in ddY strain male mice (4 weeks old) at 7 days after the intraperitoneal injection of test compounds.

LTC4 = test: Antagonism in isolated guinea-pig trachea, Test method (i) (Table 3, given as LTC4 antagonism); type: cell-based; details: Cavia porcellus, 5 min, test compound 10^-5 g/ml, given as LTC4 antagonisms
Procedure: (i) LTC4 and LTD4 antagonisms in guinea-pig trachea
Antagonisms for LTC4 and LTD4 were determined in isolated guinea-pig trachea prepared as spiral strip. Tracheal preparations were suspended under 1 g tension in 10 ml organ baths and they were incubated for 1 hr prior to use. Contractile responses to LTC4 (2×10^-8 g/ml) and LTD4 (2×10^-8 g/ml) were obtained after the maximal response to histamine (10^-4 M). Test compounds dissolved in 100% dimethyl sulfoxide were added to the organ baths (final concentration of 10^-5 g/ml or 10^-6 g/ml) 5 min prior to LTC4 and LTD4 addition, and then contractile responses to LTC4 and LTD4 were compared with those of control which was obtained from a paired trachea in the absence of test compounds. LTC4 - and LTD4 -induced contractions were expressed as a percentage of the maximal response to histamine. The antagonism was determined as follows:
(§1) Antagonism (%)=(1.0-% contraction in test/% contraction in […]

LTD4 = LTD4 antagonism in isolated guinea-pig trachea with indomethacin, Test method (ii) (Table 4); type: cell-based; details: Cavia porcellus, 0.5 h, LTD4 2×10^-8 g/ml, test compound 10^-6 g/ml, 30 min prior, 5 μmol indomethacin
Procedure: (ii) LTD4 antagonism in guinea-pig trachea
Antagonism for LTD4 was determined in isolated guinea-pig trachea prepared as spiral strip. Tracheal preparations were suspended under 1 g tension in 10 ml organ baths containing 5 μmol of indomethacin and they were incuated for 1 hr prior to use. Contractile responses to LTD4 (2×10^-8 g/ml) were obtained after the maximal response to histamine (10^-4 M). Test compounds dissolved in 100% dimethyl sulfoxide were added to the organ baths (final concentration of 10^-6 g/ml) 30 min prior to LTD4 addition, and then contractile responses to LTD4 were compared with those of control which was obtained from a paired trachea in the absence of test compounds. LTD4 -induced contractions were expressed as a percentage of the maximal response to histamine. The antagonism was determined as follows:
as §1

SMILES | inhibition at 10 µg/mL (LTC4) [%] | further results
CCCc1cc(C#N)ccc1OCCCNc1cnn(C(C)(C)C)c(=O)c1Cl [Compound No. 1, 4-Chloro-5-[3-(2-n-propyl-4-cyanophenoxy)propylamino]-2-t-butyl-3(2H)pyridazinone] | 49 | Lethal ratio (Death number/Experimental number) (ddY strain male mice; 200 mg/kg intraperitoneal): 0/2; Lethal ratio (Death number/Experimental number) (ddY strain male mice; 400 mg/kg intraperitoneal): 0/1
CCOC(=O)c1ccc(OCCCNc2cnn(CC)c(=O)c2Cl)c(Cl)c1 [Compound No. 10] | 46 | Lethal ratio (Death number/Experimental number) (ddY strain male mice; 200 mg/kg intraperitoneal): 0/2; Lethal ratio (Death number/Experimental number) (ddY strain male mice; 400 mg/kg intraperitoneal): 0/1
COc1cccc(SCCCNc2cnn(C(C)(C)C)c(=O)c2Cl)c1 [Compound No. 14] | 40 | Lethal ratio (Death number/Experimental number) (ddY strain male mice; 200 mg/kg intraperitoneal): 0/2; Lethal ratio (Death number/Experimental number) (ddY strain male mice; 400 mg/kg intraperitoneal): 0/1
CCCc1cc(C(N)=O)ccc1OCCCNc1cnn(C(C)C)c(=O)c1Br [Compound No. 122] |  | inhibition at 1 µg/mL (LTD4): 94%
CCCCc1cc(C(=O)OC)ccc1OCCCNc1cnn(C(C)C)c(=O)c1Br [Compound No. 126] |  | inhibition at 1 µg/mL (LTD4): 90%
CCCc1cc(C#N)ccc1OCC(O)CNc1cnn(C(C)C)c(=O)c1Cl (stereo not drawn) [Compound No. 145, 4-chloro-5-[3-(2-n-propyl-4-cyanophenoxy)-2-hydroxypropylamino]-2-i-propyl-3(2H)pyridazinone] | 85 | Lethal ratio (Death number/Experimental number) (ddY strain male mice; 200 mg/kg intraperitoneal): 0/2; Lethal ratio (Death number/Experimental number) (ddY strain male mice; 400 mg/kg intraperitoneal): 0/1
CCCCc1cc(C(N)=O)ccc1OCCCNc1cnn(CC)c(=O)c1Br [Compound No. 180, 4-bromo-5-[3-(2-n-butyl-4-carbamoylphenoxy)propylamino]-2-ethyl-3(2H) pyridazinone] |  | inhibition at 1 µg/mL (LTD4): 88%
CCn1ncc(NCCCOc2ccc(C(=O)OC)cc2Cl)c(Cl)c1=O [compound 13] | 53 | Lethal ratio (Death number/Experimental number) (ddY strain male mice; 200 mg/kg intraperitoneal): 0/2; Lethal ratio (Death number/Experimental number) (ddY strain male mice; 400 mg/kg intraperitoneal): 0/1
CCCc1c(OCCCOc2cnn(CC)c(=O)c2Cl)ccc2c(=O)cc(C(=O)O)oc12 [compound 29] | 18 | Lethal ratio (Death number/Experimental number) (ddY strain male mice; 200 mg/kg intraperitoneal): 0/2; Lethal ratio (Death number/Experimental number) (ddY strain male mice; 400 mg/kg intraperitoneal): 0/1
COc1cccc(OCCCOc2cnn(C(C)C)c(=O)c2Cl)c1 [compound 35] | 72 | Lethal ratio (Death number/Experimental number) (ddY strain male mice; 200 mg/kg intraperitoneal): 0/2; Lethal ratio (Death number/Experimental number) (ddY strain male mice; 400 mg/kg intraperitoneal): 0/1
COc1cccc(OCCOc2cnn(C(C)C)c(=O)c2Cl)c1 [compound 45] | 27 | Lethal ratio (Death number/Experimental number) (ddY strain male mice; 200 mg/kg intraperitoneal): 0/2; Lethal ratio (Death number/Experimental number) (ddY strain male mice; 400 mg/kg intraperitoneal): 0/1
COC(=O)CCC(=O)c1ccc(OCCCN(C)c2cnn(C(C)C)c(=O)c2Cl)cc1 [compound 77] | 17 | 
CC(C)n1ncc(N(C)CCCOc2ccc(C(=O)CCC(=O)O)cc2)c(Cl)c1=O [compound 78] | 32 | 
COC(=O)c1ccc(OCCCOc2cnn(C(C)C)c(=O)c2Cl)c(C(C)C)c1 [compound 79] | 58 | 
C=CCc1cc(C(=O)OC)ccc1OCCCNc1cnn(CC)c(=O)c1Cl [compound 81] | 80 | 
CCCc1cc(C(=O)O)ccc1OCCCOc1cnn(CC)c(=O)c1Cl [compound 83] | 46 | 
CCCc1cc(C(=O)OC)ccc1OCCCOc1cnn(CC)c(=O)c1Cl [compound 84] | 85 | 
CCCc1cc(C(=O)O)ccc1OCCCOc1cnn(C(C)C)c(=O)c1Cl [compound 86] | 59 | 
CCCc1cc(C#N)ccc1OCCCOc1cnn(C(C)C)c(=O)c1Cl [compound 87] | 60 | 
COC(=O)c1ccc(OCCCNc2cnn(C(C)C)c(=O)c2Cl)c(C(C)C)c1 [compound 88] | 97 | 
CC(C)c1cc(C(=O)O)ccc1OCCCNc1cnn(C(C)C)c(=O)c1Cl [compound 89] | 52 | 
CCOc1cc(C(=O)OC)ccc1OCCCNc1cnn(C(C)C)c(=O)c1Cl [compound 90] | 83 | 
CCOc1cc(C(=O)O)ccc1OCCCNc1cnn(C(C)C)c(=O)c1Cl [compound 91] | 14 | 
CCc1cc(C=CC(=O)O)ccc1OCCCNc1cnn(C(C)C)c(=O)c1Cl [compound 95] | 59 | 
CCc1cc(C(=O)OC)ccc1OCCCNc1cnn(CC)c(=O)c1Cl [compound 96] | 77 | 
CCc1cc(C(=O)O)ccc1OCCCNc1cnn(C(C)C)c(=O)c1Cl [compound 97] | 62 | 
CCn1ncc(NCCCOc2ccc(C)cc2OC)c(Cl)c1=O [compound 99] | 51 | 

SMILES | inhibition at 10 µg/mL (LTC4) [%] | further results
COc1cc(C)ccc1OCCCNc1cnn(C(C)C)c(=O)c1Cl [compound 100] | 66 | 
CCn1ncc(NCCCOc2ccc(C(=O)O)cc2C(C)C)c(Cl)c1=O [compound 104] | 57 | 
CCc1cc(OC)ccc1OCCCNc1cnn(CC)c(=O)c1Cl [compound 106] | 93 | 
CCc1cc(OC)ccc1OCCCNc1cnn(C(C)C)c(=O)c1Cl [compound 107] | 85 | 
CCCCc1cc(C(=O)OC)ccc1OCCCNc1cnn(C(C)C)c(=O)c1Cl [compound 110] | 77 | 
CCCc1cc(C(=O)O)ccc1OCCCNc1cnn(CC)c(=O)c1Br [compound 119] | 100 | 
COc1cccc(OCC(O)COc2cnn(C(C)C)c(=O)c2Cl)c1 (stereo not drawn) [compound 140] | 41 | 
CCOc1ccccc1OCC(O)COc1cnn(C(C)C)c(=O)c1Cl (stereo not drawn) [compound 141] | 54 | 
CC(C)c1ccccc1OCC(O)COc1cnn(C(C)C)c(=O)c1Cl (stereo not drawn) [compound 142] | 69 | Lethal ratio (Death number/Experimental number) (ddY strain male mice; 200 mg/kg intraperitoneal): 0/2; Lethal ratio (Death number/Experimental number) (ddY strain male mice; 400 mg/kg intraperitoneal): 0/1
CCCc1ccccc1OCC(O)CNc1cnn(C(C)C)c(=O)c1Cl (stereo not drawn) [compound 144] | 84 | 
CCCc1cc(C(=O)O)ccc1OCC(O)CNc1cnn(C(C)C)c(=O)c1Cl (stereo not drawn) [compound 146] | 14 | 
CCCc1cc(C(=O)OC)ccc1OCC(O)CNc1cnn(C(C)C)c(=O)c1Cl (stereo not drawn) [compound 147] | 66 | 
CCCc1cc(C(N)=O)ccc1OCC(O)CNc1cnn(C(C)C)c(=O)c1Cl (stereo not drawn) [compound 148] | 17 | 
CCCc1cc(C#N)ccc1OCC(=O)CNc1cnn(C(C)C)c(=O)c1Cl [compound 149] | 81 | 
CCn1ncc(NCC(O)COS(=O)(=O)c2ccc(C)cc2)c(Cl)c1=O (stereo not drawn) [compound 150] | 16 | 
CC(C)n1ncc(NCC(O)COc2ccccc2Cl)c(Cl)c1=O (stereo not drawn) [compound 151] | 47 | 
CCCc1cc(OC)ccc1OCC(O)CNc1cnn(CC)c(=O)c1Cl (stereo not drawn) [compound 152] | 60 | 
CCCc1cc(C(=O)OC)ccc1SCC(=O)CNc1cnn(C(C)C)c(=O)c1Cl [compound 156] | 56 | 
CCn1ncc(NCC(O)COc2ccccc2Cl)c(Cl)c1=O (stereo not drawn) [compound 159] | 44 | 
CCCc1cc(OC)ccc1OCC(O)CNc1cnn(C(C)C)c(=O)c1Cl (stereo not drawn) [compound 160] | 70 | 
CCCc1cc(C(=O)O)ccc1OCC(CN(C)c1cnn(C(C)C)c(=O)c1Cl)OC (stereo not drawn) [compound 165] | 33 | 
COC(COc1ccc(C(=O)C(C)CC(=O)O)cc1)CN(C)c1cnn(C(C)C)c(=O)c1Cl (stereo not drawn) [compound 168] | 21 | 
CC(C)c1ccccc1OCC(O)COc1cnn(C(C)C)c(=O)c1 (stereo not drawn) [compound 169] | 50 | 
COc1ccc(NCC(O)COc2cnn(C(C)C)c(=O)c2Cl)cc1OC (stereo not drawn) [compound 170] | 17 | 
CCCc1cc(C#N)ccc1OCC(=O)COc1cnn(C(C)C)c(=O)c1Cl [compound 173] | 35 | 
CCCc1cc(C(=O)OC)ccc1OCC(O)COc1cnn(C(C)C)c(=O)c1Cl (stereo not drawn) [compound 174] | 78 | 
CCCc1cc(C(=O)OC)ccc1OCC(COc1cnn(C(C)C)c(=O)c1Cl)OC (stereo not drawn) [compound 175] | 55 | 
